From publication PMC11063903, “Engineering a human P2X2 receptor with altered ligand selectivity in yeast” (The Journal of Biological Chemistry, 2024)

Key:
Format in all cases: cell-based
[1] = biological target: T1, P2X2 A304W (Homo sapiens, UniProt Q9UBL9, A304W); assay: 15-min kinetic GCaMP-mScarletI assay in yeast, P2X2 A304W; details: 1 mM ATP or 5 mM AMP-PNP, 15-min bath incubation, n = 3
T1 construct: expressed in transfected cells; host or cells: S. cerevisiae BY4741 background
T1 sequence (Q9UBL9 1-471 A304W): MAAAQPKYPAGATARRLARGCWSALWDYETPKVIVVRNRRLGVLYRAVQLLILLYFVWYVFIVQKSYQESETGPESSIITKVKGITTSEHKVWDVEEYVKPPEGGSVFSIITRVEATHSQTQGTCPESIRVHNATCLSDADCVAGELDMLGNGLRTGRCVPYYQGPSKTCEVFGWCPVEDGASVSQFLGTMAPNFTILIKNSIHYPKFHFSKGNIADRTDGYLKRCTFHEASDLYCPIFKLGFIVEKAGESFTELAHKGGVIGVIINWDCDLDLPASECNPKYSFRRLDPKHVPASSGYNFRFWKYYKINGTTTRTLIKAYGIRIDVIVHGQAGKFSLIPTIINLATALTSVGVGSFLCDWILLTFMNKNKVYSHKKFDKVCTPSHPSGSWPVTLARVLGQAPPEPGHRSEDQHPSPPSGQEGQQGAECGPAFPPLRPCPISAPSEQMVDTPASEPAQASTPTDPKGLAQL
Procedure: To more fully characterize the selected and engineered P2X2 variants, kinetic assays were performed over a longer period (15 min) that provided a more complete view of receptor gating (Fig. 5, A–H).
Figure 5 Kinetic analysis of P2X variants.A–H, P2X2 variants in GCaMP-mScarletI yeast were injected with 1 mM ATP (black) or 5 mM AMP-PNP (pink) and fluorescence was monitored over a 15-min time course of bath incubation. Error bars represent standard deviation of the mean (n = 3).
The A304W mutation therefore appears to either favor the open conformation of the receptor and/or to have slow rates of pore closure.

[2] = biological target: T2, P2X2 G353 histidine substitution (G353H) (Homo sapiens, UniProt Q9UBL9, G353H); assay: Site-saturation screen, fast kinetic assay in yeast, G353 histidine; details: 500 μM ATP, ΔF/ΔT normalized to WT
T2 construct: expressed in transfected cells; host or cells: S. cerevisiae BY4741 background
T2 sequence (Q9UBL9 whole entry G353H): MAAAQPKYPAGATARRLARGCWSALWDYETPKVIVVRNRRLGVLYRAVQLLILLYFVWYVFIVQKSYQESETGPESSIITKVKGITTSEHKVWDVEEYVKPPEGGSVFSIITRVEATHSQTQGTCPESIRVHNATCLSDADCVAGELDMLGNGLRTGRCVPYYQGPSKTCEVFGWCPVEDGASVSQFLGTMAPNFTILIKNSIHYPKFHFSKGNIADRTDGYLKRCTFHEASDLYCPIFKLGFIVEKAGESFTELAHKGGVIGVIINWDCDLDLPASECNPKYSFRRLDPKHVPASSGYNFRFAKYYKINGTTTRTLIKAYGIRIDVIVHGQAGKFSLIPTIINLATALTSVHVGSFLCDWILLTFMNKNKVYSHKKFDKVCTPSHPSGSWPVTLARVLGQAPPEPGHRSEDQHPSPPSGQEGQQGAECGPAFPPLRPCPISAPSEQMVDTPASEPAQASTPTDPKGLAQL
Procedure: Figure 2 P2X2 SNP testing.A, homology model of P2X2 with the clinically implicated SNPs highlighted. V60 is highlighted in magenta and G353 is highlighted in dark blue. Lines indicate the positions of the mutations on each of the three monomers. B, zoomed view of the transmembrane region from the purple box in (A). V60 is magenta and G353 is dark blue. The structure is rotated 60° on the right image. C, screening data from site-saturation of the V60 residue in saturating ATP concentration (500 μM f.c.) using the fast kinetic assay. Signal onset values (ΔF/ΔT) are normalized to values from the WT receptor. […] Each of 2 to 3 replicates is represented as a single point. […]
GCaMP assays were performed as follows. […] Cells were loaded onto a black, clear bottom microplate and imaged on a FlexStation3 plate reader. […] Fluorescence was measured with an excitation at 485 nm, and emission 525 nm. […] For strains with mScarlet, fluorescence was read with excitation 570 nm/emission 610 nm. Slopes were calculated from the last 6 points of measurement and were normalized to the positive control samples. Any replicate in which the mScarlet value was measured to be over 2 standard deviations less than the mean for that set was discarded from further analysis.

[3] = biological target: T3, P2X2 N300S (Homo sapiens, UniProt Q9UBL9, N300S); assay: Site-saturation screen of ligand-binding domain with ATP, N300S; details: 500 μM ATP, ± sd
T3 construct: expressed in transfected cells; host or cells: S. cerevisiae BY4741 background
T3 sequence (Q9UBL9 whole entry N300S, the tested form may be a part): as the sequence (Q9UBL9 whole entry G353H) above, with N300S, H353G counted along it
Text: (§1) The yeast P2X2 screening platform poses an opportunity to probe the structure-function of the ligand-binding domain in detail. The conserved P2X “NFR” motif at residues 300 to 302 is directly involved in bonding to the ATP triphosphate moiety ([41]), so we mutagenized residues at or near this motif (298–304), ultimately covering 133 variants (7 sites, 19 residues each). […] We compared our results to phylogenetic data based on a multiple sequence alignment (MSA) from a curated set of 419 related P2X homologs (Figs. 3B, and S5; Table S1).
(§2) Figure 3 Structure-function analysis of the ligand binding domain.A, heat map summarizing the screening data of ATP with seven site-saturation libraries surrounding the NFR-motif. B, sequence-logo plot of the mutagenized residues and percent identity scores as determined from MSA. C, homology model of P2X2 colored by sequence conservation as calculated from a multiple sequence alignment of 419 related P2X genes. Conservation is scored on a log scale where maroon is more conserved and blue is less conserved. D, ATP in the ligand-binding pocket of P2X2. […]
(§3) GCaMP assays were performed as follows. […] Cells were loaded onto a black, clear bottom microplate and imaged on a FlexStation3 plate reader. […] Fluorescence was measured with an excitation at 485 nm, and emission 525 nm. […] For strains with mScarlet, fluorescence was read with excitation 570 nm/emission 610 nm. […]

[4] = biological target: T4, P2X2 R302 glutamine (R302Q) (Homo sapiens, UniProt Q9UBL9, R302Q); assay: Site-saturation screen of ligand-binding domain with ATP, R302 glutamine; details: 500 μM ATP, ± sd
T4 construct: expressed in transfected cells; host or cells: S. cerevisiae BY4741 background
T4 sequence (Q9UBL9 whole entry R302Q, the tested form may be a part): as the sequence (Q9UBL9 whole entry G353H) above, with R302Q, H353G counted along it
Text: as §1, §2, §3

[5] = biological target: T5, P2X2 F303I (Homo sapiens, UniProt Q9UBL9, F303I); assay: Site-saturation screen of ligand-binding domain with ATP, F303I; details: 500 μM ATP, ± sd
T5 construct: expressed in transfected cells; host or cells: S. cerevisiae BY4741 background
T5 sequence (Q9UBL9 whole entry F303I, the tested form may be a part): as the sequence (Q9UBL9 whole entry G353H) above, with F303I, H353G counted along it
Text: as §1, §2, §3

[6] = biological target: T6, P2X2 A304I (Homo sapiens, UniProt Q9UBL9, A304I); assay: Site-saturation screen of ligand-binding domain with ATP, A304I; details: 500 μM ATP, ± sd
T6 construct: expressed in transfected cells; host or cells: Saccharomyces cerevisiae BY4741 derivative, genome-integrated, galactose-inducible
T6 sequence (Q9UBL9 whole entry A304I, the tested form may be a part): as the sequence (Q9UBL9 whole entry G353H) above, with A304I, H353G counted along it
Text: as §1, §2, §3

SMILES | signal decay over the time course [1] | signaling, % of WT activity [2] | signal, % of WT signaling [3] | signal, % of WT signaling [4] | signal, % of WT signaling [5] | signal, % of WT signaling [6]
Nc1ncnc2c1ncn2[C@@H]1O[C@H](COP(=O)(O)OP(=O)(O)NP(=O)(O)O)[C@@H](O)[C@H]1O [AMP-PNP] | a small amount of signal decay |  |  |  |  | 
Nc1ncnc2c1ncn2[C@@H]1O[C@H](COP(=O)(O)OP(=O)(O)OP(=O)(O)O)[C@@H](O)[C@H]1O [ATP] | no sign of decay | 32% | 151 ± 16% | 25 ± 28% | 90 ± 42% | 24 ± 17%
